Measurements: PubChem BioAssay AID1919017 (Molecular Pharmacology Branch, DTP, NCI, 2023)

Test system: SW1271 complex spheroids with HUVEC/MSC, growth, % test/control
Assay: Anticancer human tumor SW1271 cell line growth inhibition [AhR];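 further: spheroids exposed to agents for 7 days before readout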
Details: for IC50: curve of first compound; for viability, T/C: stronger effect = lower value; active means viability on the fitted dose curve at most 10% of control; inactive means the rest
How it was run: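 Agents were dosed in half-log steps down from roughly clinical Cmax, or from 10 microM where Cmax was unknown, alone and with AhR antagonists. Read-out: percent test/control growth of tumor spheroids containing HUVEC and MSC stromal cells.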

[1] = second compound 0.1 µM, first compound 0.0316 µM
[2] = second compound 0.1 µM, first compound 0.1 µM
[3] = second compound 0.1 µM, first compound 0.316 µM
[4] = second compound 0.1 µM, first compound 1 µM
[5] = second compound 0.316 µM, first compound 0.0316 µM
[6] = second compound 0.316 µM, first compound 0.1 µM
[7] = second compound 0.316 µM, first compound 0.316 µM
[8] = second compound 0.316 µM, first compound 1 µM
[9] = second compound 1 µM, first compound 0.0316 µM
[10] = second compound 1 µM, first compound 0.1 µM
[11] = second compound 1 µM, first compound 0.316 µM
[12] = second compound 1 µM, first compound 1 µM
[13] = second compound 3.16 µM, first compound 0.0316 µM
[14] = second compound 3.16 µM, first compound 0.1 µM
[15] = second compound 3.16 µM, first compound 0.316 µM
[16] = second compound 3.16 µM, first compound 1 µM
[17] = second compound 10 µM, first compound 0.0316 µM
[18] = second compound 10 µM, first compound 0.1 µM
[19] = second compound 10 µM, first compound 0.316 µM
[20] = second compound 10 µM, first compound 1 µM
[21] = second compound 0.1 µM, first compound 0.00949 µM
[22] = second compound 0.1 µM, first compound 0.03 µM
[23] = second compound 0.1 µM, first compound 0.0949 µM
[24] = second compound 0.1 µM, first compound 0.3 µM
[25] = second compound 0.1 µM, first compound 0.949 µM
[26] = second compound 0.1 µM, first compound 3 µM
[27] = second compound 0.316 µM, first compound 0.00949 µM
[28] = second compound 0.316 µM, first compound 0.03 µM
[29] = second compound 0.316 µM, first compound 0.0949 µM
[30] = second compound 0.316 µM, first compound 0.3 µM
[31] = second compound 0.316 µM, first compound 0.949 µM
[32] = second compound 0.316 µM, first compound 3 µM
[33] = second compound 1 µM, first compound 0.00949 µM
[34] = second compound 1 µM, first compound 0.03 µM
[35] = second compound 1 µM, first compound 0.0949 µM
[36] = second compound 1 µM, first compound 0.3 µM
[37] = second compound 1 µM, first compound 0.949 µM
[38] = second compound 1 µM, first compound 3 µM
[39] = second compound 3.16 µM, first compound 0.00949 µM
[40] = second compound 3.16 µM, first compound 0.03 µM
[41] = second compound 3.16 µM, first compound 0.0949 µM
[42] = second compound 3.16 µM, first compound 0.3 µM
[43] = second compound 3.16 µM, first compound 0.949 µM
[44] = second compound 3.16 µM, first compound 3 µM
[45] = second compound 10 µM, first compound 0.00949 µM
[46] = second compound 10 µM, first compound 0.03 µM
[47] = second compound 10 µM, first compound 0.0949 µM
[48] = second compound 10 µM, first compound 0.3 µM
[49] = second compound 10 µM, first compound 0.949 µM
[50] = second compound 10 µM, first compound 3 µM

CC1COCCN1c1cc(-c2ccnn2C)c2ccnc(-c3ccn[nH]3)c2n1 (stereo not given) + CC(CO)NC(=O)c1cc(-c2ccc(Cl)cc2)nn(-c2cnn(C)c2)c1=O
543 nM: IC50 (second compound 10 µM)
867 nM: IC50 (second compound 0.316 µM)
> 1000 nM: IC50 (second compound 1 µM)
inactive: viability, T/C (second compound 0.1 µM, first compound 0.00316 µM) 102% | viability, T/C (second compound 0.1 µM, first compound 0.01 µM) 97.5% | viability, T/C [1] 94.4% | viability, T/C [2] 82.1% | viability, T/C [3] 67.8% | viability, T/C [4] 48.5% | viability, T/C (second compound 0.316 µM, first compound 0.00316 µM) 92.5% | viability, T/C (second compound 0.316 µM, first compound 0.01 µM) 96.1% | viability, T/C [5] 81.7% | viability, T/C [6] 84.3% | viability, T/C [7] 70% | viability, T/C [8] 46.8% | viability, T/C (second compound 1 µM, first compound 0.00316 µM) 110% | viability, T/C (second compound 1 µM, first compound 0.01 µM) 98.2% | viability, T/C [9] 86.7% | viability, T/C [10] 80.7% | viability, T/C [11] 65.7% | viability, T/C [12] 49.1% | viability, T/C (second compound 3.16 µM, first compound 0.00316 µM) 84.5% | viability, T/C (second compound 3.16 µM, first compound 0.01 µM) 79.2% | viability, T/C [13] 75.5% | viability, T/C [14] 75.9% | viability, T/C [15] 57.2% | viability, T/C [16] 45.6% | viability, T/C (second compound 10 µM, first compound 0.00316 µM) 88.9% | viability, T/C (second compound 10 µM, first compound 0.01 µM) 75% | viability, T/C [17] 68.5% | viability, T/C [18] 66.6% | viability, T/C [19] 47.9% | viability, T/C [20] 47.6%
916 nM: IC50 (second compound 0.1 µM)
694 nM: IC50 (second compound 3.16 µM)

CC1COCCN1c1cc(C2(S(C)(=N)=O)CC2)nc(-c2ccnc3[nH]ccc23)n1 (stereo not given) + CC(CO)NC(=O)c1cc(-c2ccc(Cl)cc2)nn(-c2cnn(C)c2)c1=O
8830 nM: IC50 (second compound 3.16 µM)
inactive: viability, T/C [1] 114% | viability, T/C [2] 92.9% | viability, T/C [3] 77.6% | viability, T/C [4] 88.9% | viability, T/C (second compound 0.1 µM, first compound 3.16 µM) 72.7% | viability, T/C (second compound 0.1 µM, first compound 10 µM) 59.9% | viability, T/C [5] 91.3% | viability, T/C [6] 96.7% | viability, T/C [7] 90.3% | viability, T/C [8] 73.2% | viability, T/C (second compound 0.316 µM, first compound 3.16 µM) 56.1% | viability, T/C (second compound 0.316 µM, first compound 10 µM) 50.9% | viability, T/C [9] 80.7% | viability, T/C [10] 100% | viability, T/C [11] 98.5% | viability, T/C [12] 77% | viability, T/C (second compound 1 µM, first compound 3.16 µM) 68.3% | viability, T/C (second compound 1 µM, first compound 10 µM) 57.1% | viability, T/C [13] 98.3% | viability, T/C [14] 83.4% | viability, T/C [15] 86.4% | viability, T/C [16] 73.3% | viability, T/C (second compound 3.16 µM, first compound 3.16 µM) 61.1% | viability, T/C (second compound 3.16 µM, first compound 10 µM) 48.5% | viability, T/C [17] 80% | viability, T/C [18] 67.6% | viability, T/C [19] 72% | viability, T/C [20] 70.6% | viability, T/C (second compound 10 µM, first compound 3.16 µM) 69.2% | viability, T/C (second compound 10 µM, first compound 10 µM) 62.9%
> 10000 nM: IC50 (second compound 0.1 µM) | IC50 (second compound 0.316 µM) | IC50 (second compound 1 µM) | IC50 (second compound 10 µM)

CCN(c1cc(-c2ccc(CN3CCOCC3)cc2)cc(C(=O)NCc2c(C)cc(C)[nH]c2=O)c1C)C1CCOCC1 + CC(CO)NC(=O)c1cc(-c2ccc(Cl)cc2)nn(-c2cnn(C)c2)c1=O
> 3000 nM: IC50 (second compound 0.1 µM) | IC50 (second compound 0.316 µM) | IC50 (second compound 1 µM) | IC50 (second compound 3.16 µM) | IC50 (second compound 10 µM)
inactive: viability, T/C [21] 122% | viability, T/C [22] 117% | viability, T/C [23] 106% | viability, T/C [24] 97.2% | viability, T/C [25] 102% | viability, T/C [26] 91.8% | viability, T/C [27] 101% | viability, T/C [28] 108% | viability, T/C [29] 120% | viability, T/C [30] 113% | viability, T/C [31] 110% | viability, T/C [32] 112% | viability, T/C [33] 86.6% | viability, T/C [34] 105% | viability, T/C [35] 119% | viability, T/C [36] 94.5% | viability, T/C [37] 105% | viability, T/C [38] 110% | viability, T/C [39] 91.9% | viability, T/C [40] 88% | viability, T/C [41] 103% | viability, T/C [42] 89.3% | viability, T/C [43] 106% | viability, T/C [44] 90.3% | viability, T/C [45] 91.7% | viability, T/C [46] 94.5% | viability, T/C [47] 81.3% | viability, T/C [48] 84.9% | viability, T/C [49] 74.1% | viability, T/C [50] 79.4%

Nc1ncn(C2CC(O)C(CO)S2)c(=O)n1 (stereo not given) + CC(CO)NC(=O)c1cc(-c2ccc(Cl)cc2)nn(-c2cnn(C)c2)c1=O
> 300 nM: IC50 (second compound 0.1 µM) | IC50 (second compound 0.316 µM) | IC50 (second compound 1 µM) | IC50 (second compound 3.16 µM) | IC50 (second compound 10 µM)
inactive: viability, T/C (second compound 0.1 µM, first compound 0.000949 µM) 110% | viability, T/C (second compound 0.1 µM, first compound 0.003 µM) 98.1% | viability, T/C [21] 107% | viability, T/C [22] 102% | viability, T/C [23] 83.4% | viability, T/C [24] 87.3% | viability, T/C (second compound 0.316 µM, first compound 0.000949 µM) 103% | viability, T/C (second compound 0.316 µM, first compound 0.003 µM) 87% | viability, T/C [27] 116% | viability, T/C [28] 113% | viability, T/C [29] 74% | viability, T/C [30] 68.9% | viability, T/C (second compound 1 µM, first compound 0.000949 µM) 93.4% | viability, T/C (second compound 1 µM, first compound 0.003 µM) 77.5% | viability, T/C [33] 92% | viability, T/C [34] 96% | viability, T/C [35] 99.2% | viability, T/C [36] 80.4% | viability, T/C (second compound 3.16 µM, first compound 0.000949 µM) 93% | viability, T/C (second compound 3.16 µM, first compound 0.003 µM) 76.5% | viability, T/C [39] 83.5% | viability, T/C [40] 82% | viability, T/C [41] 84.8% | viability, T/C [42] 68.1% | viability, T/C (second compound 10 µM, first compound 0.000949 µM) 87.3% | viability, T/C (second compound 10 µM, first compound 0.003 µM) 78.1% | viability, T/C [45] 80.9% | viability, T/C [46] 77.4% | viability, T/C [47] 84.2% | viability, T/C [48] 68%

O=C(C=Cn1cnc(-c2cc(C(F)(F)F)cc(C(F)(F)F)c2)n1)NNc1cnccn1 + CC(CO)NC(=O)c1cc(-c2ccc(Cl)cc2)nn(-c2cnn(C)c2)c1=O
911 nM: IC50 (second compound 0.316 µM)
450 nM: IC50 (second compound 3.16 µM)
625 nM: IC50 (second compound 1 µM)
756 nM: IC50 (second compound 10 µM)
996 nM: IC50 (second compound 0.1 µM)
inactive: viability, T/C [21] 108% | viability, T/C [22] 76.7% | viability, T/C [23] 93.1% | viability, T/C [24] 70.5% | viability, T/C [25] 45.6% | viability, T/C [26] 34.3% | viability, T/C [27] 74.4% | viability, T/C [28] 79.2% | viability, T/C [29] 72.3% | viability, T/C [30] 63.7% | viability, T/C [31] 50% | viability, T/C [32] 31.7% | viability, T/C [33] 73.9% | viability, T/C [34] 86.7% | viability, T/C [35] 70.8% | viability, T/C [36] 60.4% | viability, T/C [37] 44% | viability, T/C [38] 40.5% | viability, T/C [39] 85.2% | viability, T/C [40] 75.3% | viability, T/C [41] 87.3% | viability, T/C [42] 57.4% | viability, T/C [43] 34.8% | viability, T/C [44] 37.8% | viability, T/C [45] 79% | viability, T/C [46] 71.7% | viability, T/C [47] 68.8% | viability, T/C [48] 92.2% | viability, T/C [49] 43.2% | viability, T/C [50] 27%
